Patent US20010006969A1, “PYRIMIDINE NUCLEUS-CONTAINING COMPOUND AND A MEDICAMENT CONTAINING THE SAME FOR A BLOOD OXYGEN PARTIAL PRESSURE AMELIORATION, AND A METHOD FOR PREPARING THE SAME” (priority 1997, published 2001)
Structures can show the parent of a compound that is named as a salt.

Columns and labels:
hypoxemic model rats = experiment: Determination of oxygen partial pressure increasing action (arterial blood PaO2 gain in hypoxemic model rats); assay type: in vivo, Sprague-Dawley male rats; conditions: urethane-anesthetized rats, i.v. continuously 0.1 mg/kg/min, PaO2 measured 10 minutes after completion of administration, gain before vs after
Experimental: Determination of oxygen partial pressure increasing action
Actions of the quinazoline derivatives of the present invention to increase oxygen partial pressure in the arterial blood were determined according to the following method:
Sprague-Dawley male rats having body weights of about 250 g were anesthetized (i.p.) with urethane and cannulated to the respiratory tracts, femoral arteries and femoral veins. An olive oil-charcoal powder suspension (10 mg/ml) was introduced in an amount of 0.8 ml/kg through the respiratory tract cannulae into the lungs to cause the rats to hypoxic state (PaO2≦75 mmHg). The quinazoline derivatives listed in Table 1 were intravenously administered to these hypoxemic model rats continuously at a rate of 0.1 mg/kg/min, and arterial blood oxygen partial pressure value (PaO2) of each rat was measured at the time point of 10 minutes after completion of administration using a blood gas analyzer (Ciba Corning 800 series). Gains (APaO2) were determined based on results of PaO2 measurement made before and after administration of the test compounds.
Actions of the thienopyrimidine derivatives of the present invention to increase oxygen partial pressure in the arterial blood were determined according to the following method:
Sprague-Dawley male rats having body weights of about 250 g were anesthetized (i.p.) with urethane and cannulated to the respiratory tracts, femoral arteries and femoral veins. An olive oil-charcoal powder suspension (10 mg/ml) was introduced in an amount of 0.8 ml/kg through the respiratory tract cannulae into the lungs to cause the rats to be under hypoxic state (PaO2 Δ 75 mmHg). The thienopyrimidine derivatives listed in Table 2 were intravenously administered to these hypoxemic model rats continuously at a rate of 0.1 mg/kg/min, and arterial blood oxygen partial pressure value (PaO2) of each rat was measured at the time point of 10 minutes after completion of administration using a blood gas analyzer (Ciba Corning 800 series). Gains (ΔPaO2) were determined based on results of PaO2 measurement made before and after administration of the test compounds.

[1] = quinazoline derivatives, hypoxic state (PaO2≦75 mmHg) by olive oil-charcoal powder suspension
[2] = thienopyrimidine derivatives, hypoxic state (PaO2 Δ 75 mmHg) by olive oil-charcoal powder suspension

| melting point | SMILES | ΔPaO2 (hypoxemic model rats; [1]) [mmHg] | ΔPaO2 (hypoxemic model rats; [2]) [mmHg] |
| --- | --- | --- | --- |
| 78 to 79 °C | C=CCNc1nc(NCC=C)c2cc(Cl)ccc2n1 [Example 1, 2,4-Diallylamino-6-chloroquinazoline] | 35 | – |
| 198 to 200 °C (dec.) | C=CCNc1nc(NCC=C)c2cc([N+](=O)[O-])ccc2n1 [Example 3, 2,4-Diallylamino-6-nitroquinazoline] | 28 | – |
| 197 to 198 °C | C=CCNc1nc(NCCC)nc2ccc([N+](=O)[O-])cc12 [Example 4, 4-Allylamino-6-nitro-2-propylaminoquinazoline] | 34 | – |
| 167 to 168 °C | C=CCNc1nc(NCC(C)(C)C)nc2ccc([N+](=O)[O-])cc12 [Example 5, 4-Allylamino-2-neopentylamino-6-nitroquinazoline] | 43 | – |
| 216 to 217 °C | C=CCNc1nc(NCc2ccccc2)nc2ccc([N+](=O)[O-])cc12 [Example 6, 4-Allylamino-2-benzylamino-6-nitroquinazoline] | 48 | – |
| 183 to 184 °C | C=CCNc1nc(NC2CCCCC2)nc2ccc([N+](=O)[O-])cc12 [Example 7, 4-Allylamino-2-cyclohexylamino-6-nitroquinazoline] | 35 | – |
| 211 to 212 °C | C=CCNc1nc(NCCC)c2cc([N+](=O)[O-])ccc2n1 [Example 10, 2-Allylamino-6-nitro-4-propylaminoquinazoline] | 34 | – |
| 150 to 151 °C | C=CCNc1nc(NC(C)C)nc2ccc([N+](=O)[O-])cc12 [Example 18, 4-Allylamino-2-isopropylamino-6-nitroquinazoline] | 30 | – |
| 211 to 212 °C | C=CCNc1nc(NC)c2cc([N+](=O)[O-])ccc2n1 [Example 21, 2-Allylamino-4-methylamino-6-nitroquinazoline] | 26 | – |
| 215 to 216 °C | C=CCNc1nc(NCC)c2cc([N+](=O)[O-])ccc2n1 [Example 22, 2-Allylamino-4-ethylamino-6-nitroquinazoline] | 27 | – |
| – | C=CCNc1nc(NCCCCC)c2cc([N+](=O)[O-])ccc2n1 [Example 25, 2-Allylamino-6-nitro-4-pentylaminoquinazoline hydrochloride] | 46 | – |
| – | C=CCNc1nc(NCCCCCCC)c2cc([N+](=O)[O-])ccc2n1 [Example 26, 2-Allylamino-4-heptylamino-6-nitroquinazoline hydrochloride] | 46 | – |
| – | C=CCNc1nc(NC2CCCC2)c2cc([N+](=O)[O-])ccc2n1 [Example 27, 2-Allylamino-4-cyclopentylamino-6-nitroquinazoline hydrochloride] | 35 | – |
| – | C=CCNc1nc(NC(C)C)c2cc([N+](=O)[O-])ccc2n1 [Example 28, 2-Allylamino-4-isopropylamino-6-nitroquinazoline hydrochloride] | 26 | – |
| – | C=CCNc1nc(NCCCC)nc2ccc([N+](=O)[O-])cc12 [Example 31, 4-Allylamino-2-butylamino-6-nitroquinazoline hydrochloride] | 36 | – |
| – | C=CCNc1nc(NCc2ccco2)nc2ccc([N+](=O)[O-])cc12 [Example 33, 4-Allylamino-2-furfurylamino-6-nitroquinazoline hydrochloride] | 42 | – |
| – | C=CCNc1nc(NC2CCCC2)nc2ccc([N+](=O)[O-])cc12 [Example 34, 4-Allylamino-2-cyclopentylamino-6-nitroquinazoline hydrochloride] | 32 | – |
| – | C=CCNc1nc(NCCCCC)nc2ccc([N+](=O)[O-])cc12 [Example 35, 4-Allylamino-6-nitro-2-pentylaminoquinazoline hydrochloride] | 34 | – |

| melting point | SMILES | ΔPaO2 (hypoxemic model rats; [1]) [mmHg] | ΔPaO2 (hypoxemic model rats; [2]) [mmHg] |
| --- | --- | --- | --- |
| 156 to 157 °C | C=CCNc1nc(NCCOCCC)c2cc([N+](=O)[O-])ccc2n1 [Example 39, 2-Allylamino-6-nitro-4-(2-propoxyethylamino)quinazoline] | 30 | – |
| – | C=CCNc1nc(NC(C)CC)c2cc([N+](=O)[O-])ccc2n1 (stereo not drawn) [Example 49, 2-Allyiamino-4-(l-methylpropylamino)-6-nitroquinazoline hydrochloride] | 32 | – |
| 171 to 172 °C | CCCCNc1nc(NCC=C(C)C)c2cc([N+](=O)[O-])ccc2n1 [Example 60, 2-Butylamino-4-(3-methyl-2-butenylamino)-6-nitroquinazoline] | 27 | – |
| 77 to 80 °C | C=CCNc1nc(NCC=C)c2scc(C)c2n1 [Example 66, 2,4-Diallylamino-7-methylthieno[3,2-d]pyrimidine] | – | 26 |
| 89 to 90 °C | C=CCNc1nc(NC(C)(C)C)c2scc(C)c2n1 [Example 68, 2-Allylamino-4-t-butylamino-7-methylthieno[3,2-d] pyrimidine] | – | 31 |
| – | C=CCNc1nc(NC2CCCCC2)c2scc(C)c2n1 [Example 70, 2-Allylamino-4-cyclohexylamino-7-methylthieno[3,2-d] pyrimidine hydrochloride] | – | 42 |
| – | C=CCNc1nc(N(CC=C)CC=C)c2scc(C)c2n1 [Example 71, 2-Allylamino-4-diallylamino-7-methylthieno[3,2-d] pyrimidine hydrochloride] | – | 26 |
| 96 to 97 °C | C=CCNc1nc(NCC)c2scc(C)c2n1 [Example 76, 2-Allylamino-4-ethylamino-7-methylthieno[3,2-d]pyrimidine] | – | 33 |
| 107 to 109 °C | C=CCNc1nc(NC23CC4CC(CC(C4)C2)C3)c2scc(C)c2n1 [Example 79, 4-(1-Adamantylamino)-2-allylamino-7-methylthieno[3,2-d] pyrimidine] | – | 36 |
| 65 to 66 °C | C=CCNc1nc(NCCCCCCCCC)c2scc(C)c2n1 [Example 80, 2-Allylamino-4-nonylamino-7-methylthieno[3,2-d]pyrimidine] | – | 28 |
| 68 to 70 °C | C=CCNc1nc(NCCCC)c2scc(C)c2n1 [Example 81, 2-Allylamino-4-butylamino-7-methylthieno[3,2-d]pyrimidine] | – | 29 |
| 91 to 92 °C | C=CCNc1nc(NC(C)CC)c2scc(C)c2n1 (stereo not shown) [Example 84, 2-Allylamino-7-methyl-4-(1-methylpropylamino)thieno[3,2-d] pyrimidine] | – | 27 |
| 55 °C | C=CCNc1nc(NCC=C)c2scc(CC)c2n1 [Example 103, 2,4-Diallylamino-7-ethylthieno[3,2-d]pyrimidine] | – | 30 |
| – | C=CCNc1nc(NC(C)(C)C)c2scc(CC)c2n1 [Example 104, 2-Allylamino-4-t-butylamino-7-ethylthieno[3,2-d]pyrimidine] | – | 41 |
| – | C=CCNc1nc(NCC=C)c2scc(CCC)c2n1 [Example 105, 2,4-Diallylamino-7-propylthieno[3,2-d]pyrimidine] | – | 28 |
| – | C=CCNc1nc(NC(C)(C)C)c2scc(CCC)c2n1 [Example 106, 2-Allylamino-4-t-butylamino-7-propylthieno[3,2-d] pyrimidine] | – | 28 |
| – | C=CCNc1nc(NC)c2scc(CCC)c2n1 [Example 107, 2-Allylamino-4-methylamino-7-propylthieno[3,2-d] pyrimidine] | – | 41 |
